Measured values taken from the NIST ThermoML archive (doi:10.1016/j.fluid.2011.07.005).

Legend:
[1] = refractive index (Na D-line) (dimensionless); conditions: 298.15 K; 101.33 kPa; Liquid; Standard Abbe refractometry
[2] = 298.15 K; 101.33 kPa; Liquid; Vibrating tube method
[3] = xn = mol fraction of the nth substance listed; conditions: 298.15 K, 101.3 kPa, Liquid, Vibrating tube method
[4] = refractive index (Na D-line) (dimensionless); xn = mol fraction of the nth substance listed; conditions: 298.15 K, 101.3 kPa, Liquid, Standard Abbe refractometry

CC(CC(C)(C)C)CP(=O)([O-])CC(C)CC(C)(C)C.CCCCCCCCCCCCCC[P+](CCCCCC)(CCCCCC)CCCCCC
Conditions | mass density [kg/m3] | refractive index
[1] | – | 1.47125
[2] | 886.43 | –

CCCCCCCCCCCCCC[P+](CCCCCC)(CCCCCC)CCCCCC.[Cl-] [trihexyl(tetradecyl)phosphonium chloride]
Conditions | mass density [kg/m3] | refractive index
[1] | – | 1.48175
[2] | 891.82 | –

CCCCCCCCCCCCCC[P+](CCCCCC)(CCCCCC)CCCCCC.[Cl-] [trihexyl(tetradecyl)phosphonium chloride] + CC(C)OC(C)C
Conditions | mass density, [3] [kg/m3] | refractive index, [4]
x2 = 0.0515 | 889.99 | 1.4808
x2 = 0.0994 | 888.06 | 1.4794
x2 = 0.2017 | 883.38 | 1.4763
x2 = 0.2989 | 878.11 | 1.4726
x2 = 0.4018 | 871.47 | 1.4678
x2 = 0.4997 | 863.46 | 1.4641
x2 = 0.5994 | 852.63 | 1.4553
x2 = 0.7017 | 836.78 | 1.4478
x2 = 0.8004 | 814.03 | 1.4384
x2 = 0.8993 | 778.62 | 1.4076
x2 = 0.9491 | 752.99 | 1.3881

CCCCCCCCCCCCCC[P+](CCCCCC)(CCCCCC)CCCCCC.[Cl-] [trihexyl(tetradecyl)phosphonium chloride] + CCO
Conditions | mass density, [3] [kg/m3] | refractive index, [4]
x2 = 0.0616 | 891.17 | 1.4814
x2 = 0.1053 | 890.69 | 1.4807
x2 = 0.2113 | 889.27 | 1.4789
x2 = 0.3038 | 887.74 | 1.4764
x2 = 0.4034 | 885.65 | 1.4742
x2 = 0.499 | 882.9 | 1.4709
x2 = 0.6004 | 878.9 | 1.466
x2 = 0.7038 | 872.77 | 1.4585
x2 = 0.7993 | 863.65 | 1.4473
x2 = 0.8999 | 845.08 | 1.425
x2 = 0.9497 | 826.4 | 1.4058
x2 = 0.9808 | 805.94 | 1.3801
